Key:
[1] = as series A (acyl azide from hydrazide, biphasic EtOAc/buffer), isolated after prep HPLC; conditions: aq phosphate buffer (6 M GdmCl) / EtOAc biphasic, 3.0 mM, 0.25 h, 2 steps
[2] = head-to-tail lactamisation of unprotected peptide acyl azide (from C-terminal hydrazide, 20 equiv NaNO2, pH 3, -15 C, then NaHCO3 to pH ~7), biphasic EtOAc/buffer; conditions: aq phosphate buffer (6 M GdmCl, 50 mM NaH2PO4, 1.5 mM EDTA) / EtOAc biphasic, 3.0 mM, 2 steps
[3] = lactamisation (head-to-tail or side-chain-to-tail) of unprotected peptide acyl azide (from hydrazide, 20 equiv NaNO2, pH 3, -15 C, then NaHCO3 to pH ~7), MeCN cosolvent; conditions: from C=CC[C@H](NC(=O)[C@H](CC(C)C)NC(=O)[C@H](CC(C)C)N(C)C(=O)[C@H](C)NC(=O)[C@H](Cc1ccc(O)c([N+](=O)[O-])c1)NC(=O)[C@H](CC(C)C)N(C)C(=O)[C@@H](N)Cc1cn(C(C)(C)C=C)c2ccccc12)C(=O)N=[N+]=[N-]; 21-membered ring; aq phosphate buffer (6 M GdmCl) diluted with 2 vol 50% MeCN/water; 2.2 mM; 0.27 h; 2 steps

`C=CC(C)(C)n1cc(C[C@@H]2NC(=O)[C@H](C/C=C/C)NC(=O)[C@H](CC(C)C)NC(=O)[C@H](CC(C)C)N(C)C(=O)[C@H](C)NC(=O)[C@H](Cc3ccc(O)c([N+](=O)[O-])c3)NC(=O)[C@H](CC(C)C)N(C)C2=O)c2ccccc21` showed a ring closure, yield over several steps ([1]; from C=CC(C)(C)n1cc(C[C@H](N)C(=O)N(C)[C@@H](CC(C)C)C(=O)N[C@@H](Cc2ccc(O)c([N+](=O)[O-])c2)C(=O)N[C@@H](C)C(=O)N(C)[C@@H](CC(C)C)C(=O)N[C@@H](CC(C)C)C(=O)N[C@@H](C/C=C/C)C(=O)N=[N+]=[N-])c2ccccc21, 21-membered ring) of 39% and a ring closure, conversion by HPLC ([2]; from C=CC(C)(C)n1cc(C[C@H](N)C(=O)N(C)[C@@H](CC(C)C)C(=O)N[C@@H](Cc2ccc(O)c([N+](=O)[O-])c2)C(=O)N[C@@H](C)C(=O)N(C)[C@@H](CC(C)C)C(=O)N[C@@H](CC(C)C)C(=O)N[C@@H](C/C=C/C)C(=O)N=[N+]=[N-])c2ccccc21, 21-membered ring, 0.25 h) of 84%.
Compound `C=CC(C)(C)n1cc(C[C@@H]2NC(=O)[C@H](Cc3ccccc3)NC(=O)[C@H](CC(C)C)NC(=O)[C@H](CC(C)C)N(C)C(=O)[C@H](C)NC(=O)[C@H](Cc3ccc(O)c([N+](=O)[O-])c3)NC(=O)[C@H](CC(C)C)N(C)C2=O)c2ccccc21` has a ring closure, yield over several steps ([1]; from C=CC(C)(C)n1cc(C[C@H](N)C(=O)N(C)[C@@H](CC(C)C)C(=O)N[C@@H](Cc2ccc(O)c([N+](=O)[O-])c2)C(=O)N[C@@H](C)C(=O)N(C)[C@@H](CC(C)C)C(=O)N[C@@H](CC(C)C)C(=O)N[C@@H](Cc2ccccc2)C(=O)N=[N+]=[N-])c2ccccc21, 21-membered ring) of 22% and a ring closure, conversion by HPLC ([2]; from C=CC(C)(C)n1cc(C[C@H](N)C(=O)N(C)[C@@H](CC(C)C)C(=O)N[C@@H](Cc2ccc(O)c([N+](=O)[O-])c2)C(=O)N[C@@H](C)C(=O)N(C)[C@@H](CC(C)C)C(=O)N[C@@H](CC(C)C)C(=O)N[C@@H](Cc2ccccc2)C(=O)N=[N+]=[N-])c2ccccc21, 21-membered ring, 0.25 h) of 63%.
Compound `C=CC[C@@H]1NC(=O)[C@H](CC(C)C)NC(=O)[C@H](CC(C)C)N(C)C(=O)[C@H](C)NC(=O)[C@H](Cc2ccc(O)c([N+](=O)[O-])c2)NC(=O)[C@H](CC(C)C)N(C)C(=O)[C@@H](Cc2cn(C)c3ccccc23)NC1=O` has a ring closure, conversion by HPLC ([2]; from C=CC[C@H](NC(=O)[C@H](CC(C)C)NC(=O)[C@H](CC(C)C)N(C)C(=O)[C@H](C)NC(=O)[C@H](Cc1ccc(O)c([N+](=O)[O-])c1)NC(=O)[C@H](CC(C)C)N(C)C(=O)[C@H](N)Cc1cn(C)c2ccccc12)C(=O)N=[N+]=[N-], 21-membered ring) of 95%.
Compound `C=CC[C@@H]1NC(=O)[C@H](CC(C)C)NC(=O)[C@H](CC(C)C)N(C)C(=O)[C@H](C)NC(=O)[C@H](Cc2ccc(O)c([N+](=O)[O-])c2)NC(=O)[C@H](CC(C)C)N(C)C(=O)[C@H](Cc2cn(C(C)(C)C=C)c3ccccc23)NC1=O` has a ring closure, yield over several steps ([1]; from C=CC[C@H](NC(=O)[C@H](CC(C)C)NC(=O)[C@H](CC(C)C)N(C)C(=O)[C@H](C)NC(=O)[C@H](Cc1ccc(O)c([N+](=O)[O-])c1)NC(=O)[C@H](CC(C)C)N(C)C(=O)[C@@H](N)Cc1cn(C(C)(C)C=C)c2ccccc12)C(=O)N=[N+]=[N-], 21-membered ring) of 56% and a ring closure, conversion by HPLC [3] of 90%.
In the case of `CC[C@@H]1NC(=O)[C@H](CC(C)C)N(C)C(=O)[C@H](C(C)C)N(C)C(=O)[C@H](CC(C)C)N(C)C(=O)[C@H](CC(C)C)N(C)C(=O)[C@@H](C)NC(=O)[C@H](C)NC(=O)[C@H](CC(C)C)N(C)C(=O)[C@H](C(C)C)NC(=O)[C@H](CC(C)C)N(C)C(=O)CN(C)C1=O`, the ring closure, yield over several steps ([1]; from CC[C@H](NC(=O)[C@H](CC(C)C)N(C)C(=O)[C@H](C(C)C)N(C)C(=O)[C@H](CC(C)C)N(C)C(=O)[C@H](CC(C)C)N(C)C(=O)[C@@H](C)N)C(=O)N(C)CC(=O)N(C)[C@@H](CC(C)C)C(=O)N[C@H](C(=O)N(C)[C@@H](CC(C)C)C(=O)N[C@@H](C)C(=O)N=[N+]=[N-])C(C)C, 33-membered ring) is reported as 22% and the ring closure, conversion by HPLC ([2]; from CC[C@H](NC(=O)[C@H](CC(C)C)N(C)C(=O)[C@H](C(C)C)N(C)C(=O)[C@H](CC(C)C)N(C)C(=O)[C@H](CC(C)C)N(C)C(=O)[C@@H](C)N)C(=O)N(C)CC(=O)N(C)[C@@H](CC(C)C)C(=O)N[C@H](C(=O)N(C)[C@@H](CC(C)C)C(=O)N[C@@H](C)C(=O)N=[N+]=[N-])C(C)C, 33-membered ring, 0.25 h) is reported as 61%.
For `CC(C)C[C@@H]1NC(=O)[C@H](CC(C)C)N(C)C(=O)[C@H](C)NC(=O)[C@H](Cc2ccc(O)c([N+](=O)[O-])c2)NC(=O)[C@H](CC(C)C)N(C)C(=O)[C@H](C)NC(=O)[C@H](Cc2ccccc2)NC1=O` [H-Ala-N-Me-Leu-Tyr(3-NO2)-Ala-N-Me-Leu-Leu-Phe-N3], the ring closure, yield over several steps ([1]; from CC(C)C[C@H](NC(=O)[C@H](CC(C)C)N(C)C(=O)[C@H](C)NC(=O)[C@H](Cc1ccc(O)c([N+](=O)[O-])c1)NC(=O)[C@H](CC(C)C)N(C)C(=O)[C@H](C)N)C(=O)N[C@@H](Cc1ccccc1)C(=O)N=[N+]=[N-], 21-membered ring) was 40% and the ring closure, conversion by HPLC ([2]; from CC(C)C[C@H](NC(=O)[C@H](CC(C)C)N(C)C(=O)[C@H](C)NC(=O)[C@H](Cc1ccc(O)c([N+](=O)[O-])c1)NC(=O)[C@H](CC(C)C)N(C)C(=O)[C@H](C)N)C(=O)N[C@@H](Cc1ccccc1)C(=O)N=[N+]=[N-], 21-membered ring, 0.25 h) was 88%.
With `C=CC[C@@H]1NC(=O)[C@H](CC(C)C)N(C)C(=O)[C@H](C(C)C)NC(=O)[C@H](Cc2ccccc2)NC(=O)[C@H](C)NC(=O)[C@H](CC(C)C)N(C)C(=O)[C@H](Cc2cn(C)c3ccccc23)NC1=O` [H-Trp(1-Me)-N-Me-Leu-Ala-Phe-Val-N-Me-Leu-allylGly-N3] the ring closure, yield over several steps ([1]; from C=CC[C@H](NC(=O)[C@H](CC(C)C)N(C)C(=O)[C@@H](NC(=O)[C@H](Cc1ccccc1)NC(=O)[C@H](C)NC(=O)[C@H](CC(C)C)N(C)C(=O)[C@@H](N)Cc1cn(C)c2ccccc12)C(C)C)C(=O)N=[N+]=[N-], 21-membered ring) was 50% and the ring closure, conversion by HPLC ([2]; from C=CC[C@H](NC(=O)[C@H](CC(C)C)N(C)C(=O)[C@@H](NC(=O)[C@H](Cc1ccccc1)NC(=O)[C@H](C)NC(=O)[C@H](CC(C)C)N(C)C(=O)[C@@H](N)Cc1cn(C)c2ccccc12)C(C)C)C(=O)N=[N+]=[N-], 21-membered ring, 0.25 h) was 75%.
In the case of `C=CC[C@@H]1NC(=O)[C@H](CC(C)C)NC(=O)[C@H](CC(C)C)N(C)C(=O)[C@H](C)NC(=O)[C@H](Cc2ccc(O)c([N+](=O)[O-])c2)NC(=O)[C@H](CC(C)C)N(C)C(=O)[C@H](Cc2cn(C)c3ccccc23)NC1=O` [H-Trp(1-Me)-N-Me-Leu-Tyr(3-NO2)-Ala-N-Me-Leu-Leu-allylGly-N3], the ring closure, yield over several steps ([1]; from C=CC[C@H](NC(=O)[C@H](CC(C)C)NC(=O)[C@H](CC(C)C)N(C)C(=O)[C@H](C)NC(=O)[C@H](Cc1ccc(O)c([N+](=O)[O-])c1)NC(=O)[C@H](CC(C)C)N(C)C(=O)[C@@H](N)Cc1cn(C)c2ccccc12)C(=O)N=[N+]=[N-], 21-membered ring) is reported as 58% and the ring closure, conversion by HPLC ([2]; from C=CC[C@H](NC(=O)[C@H](CC(C)C)NC(=O)[C@H](CC(C)C)N(C)C(=O)[C@H](C)NC(=O)[C@H](Cc1ccc(O)c([N+](=O)[O-])c1)NC(=O)[C@H](CC(C)C)N(C)C(=O)[C@@H](N)Cc1cn(C)c2ccccc12)C(=O)N=[N+]=[N-], 21-membered ring, 0.25 h) is reported as 93%.
Work on `CC(C)C[C@@H]1NC(=O)[C@H](CC(C)C)N(C)C(=O)[C@H](C)NC(=O)[C@H](Cc2ccc(O)c([N+](=O)[O-])c2)NC(=O)[C@H](CC(C)C)N(C)C(=O)[C@H](Cc2c[nH]c3ccccc23)NC(=O)[C@H](C)NC1=O` [H-Trp-N-Me-Leu-Tyr(3-NO2)-Ala-N-Me-Leu-Leu-Ala-N3] yielded a ring closure, yield over several steps ([1]; from CC(C)C[C@H](NC(=O)[C@H](CC(C)C)N(C)C(=O)[C@H](C)NC(=O)[C@H](Cc1ccc(O)c([N+](=O)[O-])c1)NC(=O)[C@H](CC(C)C)N(C)C(=O)[C@@H](N)Cc1c[nH]c2ccccc12)C(=O)N[C@@H](C)C(=O)N=[N+]=[N-], 21-membered ring) of 52% and a ring closure, conversion by HPLC ([2]; from CC(C)C[C@H](NC(=O)[C@H](CC(C)C)N(C)C(=O)[C@H](C)NC(=O)[C@H](Cc1ccc(O)c([N+](=O)[O-])c1)NC(=O)[C@H](CC(C)C)N(C)C(=O)[C@@H](N)Cc1c[nH]c2ccccc12)C(=O)N[C@@H](C)C(=O)N=[N+]=[N-], 21-membered ring, 0.25 h) of 87%.

From article PMC11191687
